# According to patent US9636286B2, “Antimicrobial cleanser” (Coloplast A/S, priority 2013, dated 2017):
# Key:
# [1] = tested on: reconstructed human epidermis (RhE) model; set-up: unit not given beside the values; conditions: known irritants and non-irritants given as examples of the scale; cited from earlier work
# [2] = tested on: reconstructed human epidermis (RhE) model; assay: In vitro irritancy, EpiDerm MTT ET50 Protocol (EPI-200), Example 1; type: cell-based
# Experimental: In vitro irritancy was tested using a commercially available kit “EpiDerm MTT ET50 Protocol (EPI-200)”, available from MatTek Corporation (Ashland, Mass.). The test kit is used as a validated replacement for in vivo irritation testing otherwise known as “Draize testing”, in the EU (OECD TG439). Our method of data analysis and outcome prediction is altered slightly to determine relative differences in irritation potential between experimental neat materials tested within the same kit.
# The test consists of a topical exposure of the neat experimental material to a reconstructed human epidermis (RhE) model followed by a cell viability assay. The cell viability test method is based on the enzymatic conversion of mitochondrial dehydrogenase with MTT [(3-4,5-dimethyl thiazole-2-yl) 2,5-diphenyltetrazolium bromide], resulting in a blue formazan salt, which is than extracted from the tissues and quantitated. […]
# EpiDerm tissues are conditioned overnight at 37±2° C., 5% CO2, to relieve stress from the shipping process. […] After the three hour incubation in MTT, the formazan salt is extracted using 2.0 mL of isopropanol and the optical density (OD) of each sample is measured at 570 nm. Relative cell viability is calculated as a % of the mean of the negative control tissue. Dose-response curves are constructed for each sample and an ET50 value is calculated. […]
Molecule,"ET50 (Irritancy Scale, example substances) [1]",Expected In vivo Irritancy Score ([2]; from ET50 by Irritancy Scale),"ET50 Value ([2]; neat material, exposure 1, 4 or 24 hrs, time to reduce cell viability to 50%)"
Triton X-100 [1.0% Triton X-100],4-12,very mild (12-24),12.69 h
"CCCCCCCCCCCCOS(=O)(=O)[O-].[Na+] [1% SDS, SDS]",0.5-4,,
O=[N+]([O-])O [Nitric Acid],<0.5,,
